Patent US7754677B2, “Composition and method for reducing diarrhea in a mammal” (Hill's Pet Nutrition, Inc., priority 2003, dated 2010)

What was measured:
[1] = Postprandial plasma glutamine dose response study in dogs; type: in vivo
Procedure: In one experiment, a source of glutamine was tested to see if it was bioavailable and able to deliver adequate glutamine to the intestinal cells. The source of glutamine was a wheat hydrolysate with an enrichment of 30% glutamine. A dose response study was carried out in 6 dogs to see if increasing levels of the glutamine source (0, 0.5, 1.0, 2% glutamine content) was detected in the plasma after feeding the diet.

[2] = tested on: T cell lymphocyte; assay: T-cell proliferation assay in response to ConA mitogen, blood of dogs fed glutamine supplemented diet; type: in vivo, Beagle dogs; settings: for T cell proliferation (log10 cpm): ConA mitogen, data collapsed across ConA doses
Procedure: In a further experiment, the efficacy of glutamine as a immune-modulator was examined. 20 Beagle dogs were randomly allocated into 4 groups receiving either basic diet or basic diet supplemented with 1%, 2%, or 4% glutamine. Blood samples were drawn in heparinized tubes from animals 2 hrs after their last feeding on day 1 and 16. Samples were prepared for immune measurement. (T cell proliferation assay).
T-cell proliferation assay. Peripheral blood leukocytes (PBL) in each blood sample were counted using Nova Celltrak II (Beckman Coulter Corp., Fla.). Blood was diluted (1:20) with supplemented media. Diluted blood was plated, in triplicate, in 96 well cell culture plates with the following mitogens diluted in supplemented media: Concanavalin A (0.5 μg/ml, 2.5 μg/ml. Plates were incubated in a humidified incubator containing 7% CO2 at 37° C. for 72 hrs. Cellular DNA was […]. Cellular DNA was harvested on glass fiber paper using a cell harvester (Skatron Instruments Inc., Va.) and suspended with 1.5 ml scintillation cocktail. [^3H]thymidine uptake was quantified as counts per minutes (CPM) using TriCarb 2100TR Liquid Scintillation Analyzer (Packard BioScience Company, Ill.). Counts were normalized to CPM/10,000 cells to account for variation in PBL concentrations.
Concanvalin A (Con A) is a polyclonal T-cell mitogen. […] Thus, the data were collapsed across the different doses of Con A to show the proliferative response of lymphocytes dependent on percentage of glutamine supplemented in the diet.

## NC(=O)CC[C@H](N)C(=O)O [glutamine]
[1]; 0.5% supplemented glutamine in food
  % Change in plasma glutamine from control: 3%
[1]; 1.0% supplemented glutamine in food
  % Change in plasma glutamine from control: 10%
[1]; 2.0% supplemented glutamine in food
  % Change in plasma glutamine from control: 15%
[2]; 1% glutamine in diet, versus control group P<0.05
  Lymphocyte proliferation, result in words: maximum lymphocyte proliferation
[2]; 1% supplemental glutamine in diet
  T cell proliferation (log10 cpm): 5 log10 cpm
[2]; 1-2% glutamine in diet
  T-lymphocytes proliferation, result in words: enhances overall T-lymphocytes proliferation
[2]; 2% supplemental glutamine in diet
  T cell proliferation (log10 cpm): 4.8 log10 cpm
[2]; 4% glutamine in diet
  T-lymphocytes proliferation, result in words: not additionally beneficial
[2]; 4% supplemental glutamine in diet
  T cell proliferation (log10 cpm): 4.5 log10 cpm
